From publication PMC11992225, “Antibacterial compounds against non-growing and intracellular bacteria” (npj Antimicrobials and Resistance, 2025) come the findings set out here.

By EC50 is commonly meant the concentration giving half of the maximal effect.

The subject of assay [1] is SOS response in UPEC CFT073. Description: SOS response induction analysis, pAED2 cda' promoter mScarlet-I reporter. The assay is classed as cell-based, Escherichia coli. As to conditions: 20 μM; for induction of the SOS response in growing UPEC cultures: 6 h, MMC, BLE, ECH in 1:4 CA-MHB pH 7.4, PLI, SAT, EVO in LPM pH 5.5; for growth inhibition of growing UPEC: LPM pH 5.5, Fig. S7C,D. The protocol: Since we aimed to test SOS induction in non-growing cultures, it was essential to use a reporter with no leaky expression in the stationary phase. Therefore, we constructed the plasmid pAED2, based on the low copy-number plasmid pSC101, which contains the cda’ promoter in front of the mScarlet-I-encoding reporter gene.
Overnight cultures of CFT073 harboring a reporter plasmid were grown in 3 ml of LB supplemented with 100 µg/ml carbenicillin (Cb), then diluted 1:100 into the medium used for testing. For validation of the pANO1::cda’ reporter, an overnight culture was diluted into CA-MHB (supplemented with 40 mM HEPES, pH 7.4, and 100 µg/ml Cb) and grown to an OD600 ≈ 0.5 at 37 °C with shaking at 200 rpm in an Erlenmeyer flask. […] Empty wells were filled with water. […] The experiment was performed in triplicate.
For analysis of the SOS induction by anti-cancer compounds, the overnight cultures were diluted either into 1:4 diluted CA-MHB (40 mM HEPES, pH 7.4) or LPM (30 mM MES, pH 5.5) that were supplemented with 100 µg/ml Cb. For analysis of the effect on growing bacteria, the cultures were incubated at 37 °C with shaking at 200 rpm in Erlenmeyer flasks for 90 min, to an OD600 ≈ 0.5. Then, 180 μl aliquots were transferred to 96-well plates, and 20 μl of the 200 μM drug solution was added to achieve a final concentration of 20 μM. The plates were incubated in a microplate reader (BioTek Synergy H1) at 37 °C with continuous shaking for 6 h. OD600 and mScarlet fluorescence were recorded throughout the incubation.
For analysis of the effect of anti-cancer compounds on stationary phase- and regrowing bacteria, the cultures were incubated for 24 h at 37 °C with shaking at 200 rpm in Erlenmeyer flasks. […] The samples were incubated for 24 h at 37 °C in standing 1.5 ml tubes. Before and after the drug treatment, 25 μl aliquots were taken and diluted by mixing with 175 μl PBS. OD600 and mScarlet fluorescence were recorded using a microplate reader (BioTek Synergy H1).
After the treatment, stationary-phase bacteria were harvested by centrifugation at 5000 × g for 5 min at 20 °C, washed twice with PBS, and resuspended in 475 μl PBS.

In assay [2] the test system is non-growing P. aeruginosa DSM1117. The assay can be described thus: Dose-dependent killing analysis (CFU spot-plating) of stationary-phase P. aeruginosa. The class given is cell-based, Pseudomonas aeruginosa. As to conditions: for killing, average Δlog10(CFU/ml) / log10(CFU/ml) after treatment, replicate 1 / log10(CFU/ml) after treatment, replicate 2 / log10(CFU/ml) after treatment, replicate 3 / log10(CFU/ml) of treated nongrowing bacteria (single replicates): P. aeruginosa; for log10(CFU/ml) of treated nongrowing bacteria (single replicates): before treatment 8.887. The method in brief: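 Viability by CFU: samples serially diluted 10-fold in PBS, spotted on LB agar, grown overnight at 37 °C, and colonies counted at the lowest resolvable dilution. Non-growing P. aeruginosa DSM1117 had been dosed for 24 h in 1:4 CA-MHB (pH 7.4); three biological replicates.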

The test system of assay [3] is non-growing S. aureus DSM2569. Description: Dose-dependent killing analysis (CFU spot-plating) of stationary-phase S. aureus. The class given is cell-based, Staphylococcus aureus. As to conditions: for killing, average Δlog10(CFU/ml) / log10(CFU/ml) of treated nongrowing bacteria (single replicates): S. aureus; for log10(CFU/ml) of treated nongrowing bacteria (single replicates): before treatment 9,097. The essentials:
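Survival was scored as CFU after overnight growth at 37 °C on LB agar, using spots from 10-fold PBS dilutions of treated cultures. Non-growing S. aureus DSM2569 had been exposed to compound for 24 h in 1:4 CA-MHB, pH 7.4. Three biological replicates were run.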

Assay [4] deals with non-growing S. aureus DSM2569. Description: Dilution-regrowth assay (OD600, start-growth-time) on stationary-phase S. aureus. The assay is classed as cell-based, Staphylococcus aureus. The note with it: S. aureus; for EC50: regrowth delay of non-growing bacteria, 1:4 CA-MHB pH 7.4, 24 h treatment, OD600 8 h after dilution. The method in brief: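 Non-growing S. aureus was tested in a dilution-regrowth format. Cells were cultured and treated for 24 h in 1:4 diluted CA-MHB, pH 7.4, then diluted into drug-free medium, and OD600 was measured every 20 min. Start-growth-time was the time OD600 passed 0.12. Dose-response curves were fitted with a five-parameter logistic equation to derive EC50.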

Several values for one entry are separate records, joined by “and”; a condition that tells them apart may be missing. Equal values may be shown once. Read-outs that look alike come from different tables or passages of the source.

As for `CS[C@H]1SC[C@H]2C(=O)N(C)[C@@H](C(C)C)C(=O)OC[C@@H](NC(=O)c3cnc4ccccc4n3)C(=O)N[C@@H](C)C(=O)N(C)[C@@H]1C(=O)N(C)[C@@H](C(C)C)C(=O)OC[C@@H](NC(=O)c1cnc3ccccc3n1)C(=O)N[C@@H](C)C(=O)N2C` [Echinomycin], the “induction of the SOS response in growing UPEC cultures” value (“induction of the SOS response” below) in assay [1] is “induced the SOS response”.
In the case of `CC(=O)[O][Pt]([NH2])([Cl])([Cl])([NH]C1CCCCC1)[O]C(C)=O` [Satraplatin], in assay [1], the “induction of the SOS response” value was “induced the SOS response” and the “growth inhibition of growing UPEC” value is “only a slight growth inhibition”. Also, in assay [2] (drug concentration 0.1), the “killing, average Δlog10(CFU/ml)” value is -0.012 log10(CFU/ml); the “log10(CFU/ml) after treatment, replicate 1” value (shortened to “log10(CFU/ml) … replicate 1”) is reported as 8.699 log10(CFU/ml); the “log10(CFU/ml) after treatment, replicate 2” value (shortened to “log10(CFU/ml) … replicate 2”) is 9.301 log10(CFU/ml); the “log10(CFU/ml) after treatment, replicate 3” value (shortened to “log10(CFU/ml) … replicate 3”) was 8.699 log10(CFU/ml). Further, in assay [2] (drug concentration 0.5), the “killing, average Δlog10(CFU/ml)” value is given as 0.420 log10(CFU/ml); the “log10(CFU/ml) … replicate 1” value is listed as 8.477 log10(CFU/ml); the “log10(CFU/ml) … replicate 2” value was 8.845 log10(CFU/ml); the “log10(CFU/ml) … replicate 3” value is 8.079 log10(CFU/ml). Also, in assay [2] (drug concentration 2.5), the “killing, average Δlog10(CFU/ml)” value is 1.880 log10(CFU/ml); the “log10(CFU/ml) … replicate 1” value is on record as 7.845 log10(CFU/ml); the “log10(CFU/ml) … replicate 2” value was 8.477 log10(CFU/ml); the “log10(CFU/ml) … replicate 3” value is given as 4.699 log10(CFU/ml). Besides, in assay [2] (drug concentration 10), the “killing, average Δlog10(CFU/ml)” value was 3.310 log10(CFU/ml); the “log10(CFU/ml) … replicate 1” value is recorded as 5.000 log10(CFU/ml); the “log10(CFU/ml) … replicate 2” value was 6.778 log10(CFU/ml); the “log10(CFU/ml) … replicate 3” value was 4.954 log10(CFU/ml).
With `N[C@@H]1CN(c2c(F)cc3c(=O)c(C(=O)O)cn([C@@H]4C[C@@H]4F)c3c2Cl)CC12CC2` [Sitafloxacin], the “killing of non-growing S. aureus (reduction of bacterial counts)” value in assay [3] (10 to 0.1 μM, 24 h treatment) is reported as “the most activity”. In addition, the “killing, average Δlog10(CFU/ml)” value in assay [3] (drug concentration 0.1) is on record as 0.348 log10(CFU/ml); in assay [3] (drug concentration 0.5), 1.504 log10(CFU/ml); in assay [3] (drug concentration 2.5), 2.447 log10(CFU/ml); in assay [3] (drug concentration 10) it was 2.500 log10(CFU/ml); in assay [2] (drug concentration 0.1), 1.534 log10(CFU/ml); in assay [2] (drug concentration 0.5) it was 3.935 log10(CFU/ml). Besides, the “killing, average Δlog10(CFU/ml)” value in assay [2] (drug concentration 2.5) was 4.787 log10(CFU/ml); in assay [2] (drug concentration 10) it was 4.353 log10(CFU/ml). The “log10(CFU/ml) of treated nongrowing bacteria (single replicates)” value (shortened to “log10(CFU/ml) … (single replicates)”) in assay [3] (drug concentration 0.1) was 8.602 log10(CFU/ml) and 8.881 log10(CFU/ml) and 8.763 log10(CFU/ml); in assay [3] (drug concentration 0.5), 7.223 log10(CFU/ml) and 7.833 log10(CFU/ml) and 7.724 log10(CFU/ml); in assay [3] (drug concentration 2.5) it was 6.820 log10(CFU/ml) and 6.716 log10(CFU/ml) and 6.413 log10(CFU/ml); in assay [3] (drug concentration 10) it was 6.908 log10(CFU/ml) and 6.613 log10(CFU/ml) and 6.270 log10(CFU/ml); in assay [2] (drug concentration 0.1), 7.699 log10(CFU/ml) and 7.362 log10(CFU/ml) and 7.000 log10(CFU/ml); in assay [2] (drug concentration 0.5), 5.954 log10(CFU/ml) and 4.903 log10(CFU/ml) and =<4 log10(CFU/ml). For the same compound, the “log10(CFU/ml) … (single replicates)” value in assay [2] (drug concentration 2.5) was “=<4 log10(CFU/ml) (2×) and 4.301 log10(CFU/ml)”; in assay [2] (drug concentration 10) it was 5.000 log10(CFU/ml) and 4.602 log10(CFU/ml) and =<4 log10(CFU/ml). In addition, the “reduction of bacterial counts, stationary phase P. aeruginosa” value in assay [2] (at 0.5 µM, 24 h treatment) was “more than four”. Besides, the “reduction of bacterial counts, non-growing P. aeruginosa” value in assay [2] (at 2.5 µM, 1:4 CA-MHB pH 7.4, 24 h treatment) is reported as “more than four”. Besides, in assay [4] (read-out: EC50), the EC50 was found to be 106 nM.
For `NC1CCN(c2nc3c(cc2F)c(=O)c(C(=O)O)cn3-c2ccc(F)cc2F)C1` (stereo not drawn) [Tosufloxacin], the “killing, average Δlog10(CFU/ml)” value in assay [3] (drug concentration 0.1) is listed as 0.037 log10(CFU/ml); in assay [3] (drug concentration 0.5), 0.330 log10(CFU/ml); in assay [3] (drug concentration 2.5), 0.522 log10(CFU/ml); in assay [3] (drug concentration 10) it was 0.688 log10(CFU/ml); in assay [2] (drug concentration 0.1), 0.209 log10(CFU/ml); in assay [2] (drug concentration 0.5), 1.194 log10(CFU/ml). For the same compound, the “killing, average Δlog10(CFU/ml)” value in assay [2] (drug concentration 2.5) is recorded as 3.719 log10(CFU/ml); in assay [2] (drug concentration 10) it was 4.787 log10(CFU/ml). The “log10(CFU/ml) … (single replicates)” value in assay [3] (drug concentration 0.1) was 8.845 log10(CFU/ml) and 9.301 log10(CFU/ml) and 9.033 log10(CFU/ml); in assay [3] (drug concentration 0.5) it was 8.690 log10(CFU/ml) and 8.869 log10(CFU/ml) and 8.740 log10(CFU/ml); in assay [3] (drug concentration 2.5) it was 8.580 log10(CFU/ml) and 8.898 log10(CFU/ml) and 8.248 log10(CFU/ml); in assay [3] (drug concentration 10) it was 8.531 log10(CFU/ml) and 8.663 log10(CFU/ml) and 8.033 log10(CFU/ml); in assay [2] (drug concentration 0.1) it was 8.477 log10(CFU/ml) and 8.954 log10(CFU/ml) and 8.602 log10(CFU/ml); in assay [2] (drug concentration 0.5), 7.477 log10(CFU/ml) and 7.903 log10(CFU/ml) and 7.699 log10(CFU/ml). For the same compound, the “log10(CFU/ml) … (single replicates)” value is 5.602 log10(CFU/ml) (2×) and 4.301 log10(CFU/ml) in assay [2] (drug concentration 2.5); “=<4 log10(CFU/ml) (2×) and 4.301 log10(CFU/ml)” in assay [2] (drug concentration 10). In assay [4] (Staphylococcus aureus, DSM2569, read-out: EC50), the EC50 is 328 nM.
Plicamycin: the “induction of the SOS response” value in assay [1] is “not detected”. Moreover, the “growth inhibition of growing UPEC” value in assay [1] is recorded as “only a slight growth inhibition”. Moreover, the “Regrowth, OD600 at 6h or 8h after dilution into drug-free medium (average)” value in assay [4] (drug concentration 0.1) stood at 0.578; in assay [4] (drug concentration 0.5) it was 0.347; in assay [4] (drug concentration 2.5), 0.205; in assay [4] (drug concentration 10) it was 0.143. The EC50 in assay [4] is 359 nM.
